Measurements: US9718771B2, “Aniline derivative, pharmaceutical composition containing same, and use thereof” (Kissei Pharmaceutical Co., Ltd., priority 2014, dated 2017)
Each block holds one compound with its values, some of them ahead of it.

How the values were obtained:
[1] = tested on: Naïve T cells-transferred colitis model; assay: Drug efficiency evaluation in naïve T cells-transferred colitis model; type: in vivo; conditions: SCID mice, mean ± standard error
Method: The Drug Efficiency Evaluation in Naïve T Cells—Transferred Colitis Model
(1) Purification of CD45RB Positive Naïve T Cells and Transfer the Cells into SCID Mice
After female BALB/c mice (Charles River Japan, 8-weeks-old in use) were sacrificed by blood removal from cervical vein under inhalation anesthesia with isoflurane spleens were harvested from these mice. Spleens were washed with ice-cold PBS (phosphate buffered saline, Invitrogen) and stored in 50 mL tube containing PBS on ice. Spleens stored on ice were mashed with the upper portion of slide glasses inside a biological safety cabinet, and filtered through a cell filter (pore size 70 μm), and the filtrate was centrifuged at 500×g, room temperature for 5 minutes. After the supernatant was removed, 12 mL of RBC lysis buffer (Biolegend) was added to a cell pellet and it was resuspended and left for about 3 minutes. The supernatant was removed after centrifugation and the hemolytic process was performed by repeating same procedure once again.
The cells were purified with Mouse Naive T cell CD4^+/CD62L^+/CD44^low Colum Kit (R&D systems). The cells performed with the hemolytic process, were suspended by column buffer attached to the above Column Kit, and purified through a cell filter (pore size 70 μm) after centrifugation at 500×g, room temperature for 5 minutes. The cells were resuspended with column buffer, and antibody cocktails attached to the above Column Kit were added to this and mixed. After that, the cells were purified according to the protocol of the Column Kit.
Next, purification of CD45RB positive cells was performed by MACS (registered mark) separator (Miltenyi Biotec). The purified cells were suspended with 2 mL of PBS containing 0.5% BSA, and reacted at room temperature for 15 minutes after adding FITC (fluorescein isothiocyanate)-labeled anti-CD45RB antibody (Biolegend). After washing two times with PBS containing 0.5% BSA by centrifugation, the cells were resuspended with 2 mL of PBS containing 0.5% BSA and reacted at room temperature for 10 minutes after adding anti-FITC microbeads (Miltenyi Biotec). After washing one time with PBS containing 0.5% BSA by centrifugation, the cells were resuspended with 3 mL of PBS containing 0.5% BSA, and a fraction of CD45RB positive cells was purified according to the protocol of MACS (registered trademark) separator. In the process of elution after detached from MACS (registered trademark) separator, the cells were separated with 5 mL of PBS. The cell suspension was washed one time by centrifugation with PBS, resuspended by appropriate PBS and measured the cell number as naïve T cells suspension for transfer. Female CB17/Icr-scid/scid Jcl (SCID mice) (Charles River Japan, 8-weeks-old in use) were induced colitis by intraperitoneal administration of 500 μL (divided into 250 μL two times) of naïve T cells suspension prepared at 6×10^5 cells/mL by PBS.
(2) Measurement of Body Weight and Procedure for Administration of Drugs
Body weights were measured at day 1, 8 and 15 as day 0 when naïve T cells were transferred to mice. Mice were grouped evenly, based on body weight change at day 15. The measurement of body weight was performed two times a week after day 15. A solvent (Vehicle) and test compounds were administered twice a day from the evening of day 15. The administration solution was prepared as indicated below. Firstly, 0.5% methyl cellulose (Wako pure chemicals) of 1/10 volume of total volume was added to test compound, and a suspension was prepared by sonication. […] After that, administration solutions for test compounds were prepared by sonication while adding distilled water of 9/10 volume of total volume to these suspensions in several batches. A solution prepared in the same volume ratios of 0.5% methyl cellulose and distilled water as administration solutions for test compounds was used as vehicle. Administration solutions for vehicle or test compounds were orally administered to mice at 5 mL/kg.

blood lymphocytes = assay: Confirmation test for reduction effects on the number of lymphocytes; type: in vivo, Male Sprague-Dawley rats; conditions: rat, oral; for Number of lymphocytes (% of Vehicle) After 6 hours: 6 hours after administration; for Number of lymphocytes (% of Vehicle) After 24 hours: 24 hours after administration; for Number of lymphocytes (% of Vehicle) After 48 hours: 48 hours after administration
Method: Confirmation Test for Reduction Effects on the Number of Lymphocytes
Reduction effects on the number of blood lymphocytes by test compounds were confirmed using Male Sprague-Dawley rats (Japan SLC, 7-weeks-old in use). Administration solutions for test compounds were prepared on hot-plate at 50° C. After test compounds were dissolved by DMSO (dimethyl sulfoxide, Wako Pure Chemicals) of 1/10 volume of the total volume, WellSolve (Celeste) of 1/10 volume of the total volume was added to this solution. Further, distilled water (Otsuka Pharmaceutical Factory) of 8/10 volume of the total volume was added to this solution, and the administration solutions for test compounds were prepared. A solution, prepared in the same volume ratios of DMSO. WellSolve and distilled water as the administration solution for test compounds, was used as a solvent (Vehicle). Vehicle or test compound was administered orally to rats at 1 mL/body. After 6, 24 and 48 hours from administration of vehicle or test compounds, rats were held on the board at supine position under inhalation anesthesia with isoflurane (Abbott Japan). Blood samples (200 to 250 μL) were collected from the cervical vein of this rat using 1 mL syringes with needles of 25G. The collected blood samples were transferred to a microtube treated with EDTA-2K (Japan Becton Dickinson), and stored at room temperature after gently mixing with inversion. The number of lymphocytes was measured by ADVIA (registered mark) (Bayer), which is a multi-parameter automated blood cell counter using this blood samples. The average number of lymphocytes in vehicle-treated group (vehicle group) was defined as 100%, and the average number of lymphocytes in each test compound-treated group was calculated as % of vehicle. As Comparative Example 2, 1-{5-[1-(4-chloro-3-methyl-phenyl)-propylamino]-2-methyl-benzyl}-azetidine-3-carboxylic acid (patent literature 1, Example 4) was evaluated as well.

human S1P1 (EDG-1) = human S1P1 (EDG-1) (Homo sapiens (Human), UniProt P21453); assay: Confirmation test of antagonistic activity for human S1P1 receptor (35S-GTP binding, cell membranes); type: biochemical; conditions: inhibition of 35S-GTP binding induced by S1P1 receptor selective agonist; HEK293 membranes expressing human S1P1
human S1P1 (EDG-1), sequence (P21453 whole entry): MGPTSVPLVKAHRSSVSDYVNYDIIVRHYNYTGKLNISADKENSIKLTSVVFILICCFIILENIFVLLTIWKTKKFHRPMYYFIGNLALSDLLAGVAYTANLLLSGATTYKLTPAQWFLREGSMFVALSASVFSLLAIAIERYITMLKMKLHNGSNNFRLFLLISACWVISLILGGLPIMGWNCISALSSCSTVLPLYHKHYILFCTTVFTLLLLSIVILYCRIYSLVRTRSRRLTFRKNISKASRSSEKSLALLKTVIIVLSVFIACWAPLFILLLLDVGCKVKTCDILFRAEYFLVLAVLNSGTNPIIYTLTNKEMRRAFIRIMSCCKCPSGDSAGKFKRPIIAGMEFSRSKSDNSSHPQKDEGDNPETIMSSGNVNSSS
Method: Confirmation Test of Antagonistic Activity for Human S1P1 Receptor
Test compounds were tested by reduction of functional binding activity of ^35S-GTP (guanosine 5′-O-[gamma-thio] triphosphate, PerkinElmer) to G protein using cell membranes expressing human S1P1 (EDG-1). S1P1-pcDNA3.1/V5-His-Topo vector was prepared by inserting cDNA (NM_001400) encoding human S1P1 into the expression vector, pcDNA3.1/V5-His-Topo (registered trademark) (Invitrogen). Next, the above S1P1-pcDNA3.1 vector was transfected into HEK293 cells by Lipofectamine2000 (registered trademark) (Invitrogen). The transfected cells were incubated with D-MEM liquid medium each containing 10% FBS (Fetal bovine serum), 100 U/mL penicillin, 100 μg/mL streptomycin and 1 mg/mL Geneticin (registered trademark) (Invitrogen) in an incubator under the condition of 5% CO2 at 37° C. and Geneticin (registered mark)-resistant cell line stably expressing S1P1 were obtained. The obtained stably S1P1-expressing cells were incubated with D-MEM liquid medium each containing 10% FBS and 0.5 mg/mL Geneticin (registered trademark) in an incubator under the condition of 5% CO2 at 37° C. The cells grown to confluence were harvested by a buffer solution containing 50 mM Tris, 2 mM EDTA (ethylmediaminetetraacetic acid) and 125 mM sodium chloride, and centrifuged at 1880×g, 4° C. for 10 minutes. After a supernatant was removed, a cell pellet was resuspended by the same buffer solution. For making cell membranes fragile, this cell suspension was frozen at −80° C. and then thawed. The cells were centrifuged at 1880×g, 4° C. for 10 minutes, and a supernatant was removed. The cell pellet was suspended by adding the same buffer solution and a fracture solution (10 mM sodium bicarbonate and 5 mM EDTA, pH 7.5) at a ratio of 2:1. The cells were fractured by subjecting the cell suspension to ultrasonication, and a cell membrane fraction was isolated by centrifugation at 1880×g, 4° C. for 10 minutes and ultracentrifugation of the supernatant at 80000×g, 4° C. for 30 minutes. A pellet of the cell membrane fraction was suspended by the fracture solution containing protease inhibitor cocktail (Roche) and stored at −80° C. until use. A protein concentration of the cell membrane fraction was determined using BCA Protein Assay Kit (Pierce) in accordance with an attached protocol.
Inhibitory activity evaluation was performed by multi-screen (registered trademark) HTS 96-well plate (Millipore) using the cell membrane fraction stably expressing S1P1 obtained by the above operation. 25 μL of assay solution (50 mM Tris, 100 mM sodium chloride, 5 mM magnesium chloride, 1 mM EDTA, 1 mM DTT (dithiothreitol), 10 μM GDP (guanosine diphosphate) and 0.5% BSA (bovine serum albumin), pH 7.4), 25 μL of test compounds solution diluted by assay solution and 25 μL of the membrane fraction (0.2 μg protein/μL) were added to each well, and the mixture was gently shaken at room temperature: for 30 minutes. Then, 25 μL of ^35S-GTP, and 25 μL of 50 nM S1P1 receptor selective agonist (1-[4-(4-phenyl-5-trifluoromethylthiophen-2-ylmethoxy)benzyl]azetidine-3-carboxylic acid, “J. Med. Chem.”, 2004, vol. 47, pp. 6662-6665, compound 18) were added to each well, respectively, and it was reacted at room temperature for 60 minutes. After the reaction, a reaction solution of each well was suction-filtered. After suction filtration, ice-colded wash solution (50 mM Tris, 100 mM sodium chloride, […] and 1 mM EDTA, pH 7.4) was added to each well, and moreover filters were washed by suction filtration. This wash procedure was performed three times. A bottom of the plate containing the filters was dried at 60° C. After drying, 30 μL of MicroScinti-40 (PerkinElmer) was added to each well, and the radioactivity adsorbed on the filter was determined by TopCount NXT (registered trademark) (PerkinElmer) after shaking for 30 minutes at room temperature. […]

[2] = oral twice a day, 1.5 mg/kg, vehicle group = 100%

SMILES: Nc1ccc(O)c(C(=O)O)c1 [5-Aminosalicylic acid, reference compound]
Colon weight (%) ([1]; oral twice a day, vehicle group = 100%): 75.9 ± 58.3%

SMILES: CCC(Nc1ccc(C)c(CN2CC(C(=O)O)C2)c1)c1ccc(Cl)c(C)c1 (stereo not drawn) [Comparative Example 2, 1-{5-[1-(4-chloro-3-methyl-phenyl)-propylamino]-2-methyl-benzyl}-azetidine-3-carboxylic acid, reference compound]
Number of lymphocytes (% of Vehicle) After 6 hours (blood lymphocytes; 1 mg/kg): 39.9 % of Vehicle
Number of lymphocytes (% of Vehicle) After 24 hours (blood lymphocytes; 1 mg/kg): 82.3 % of Vehicle
Number of lymphocytes (% of Vehicle) After 48 hours (blood lymphocytes; 1 mg/kg): 109.6 % of Vehicle
Number of lymphocytes (% of Vehicle) After 6 hours (blood lymphocytes; 10 mg/kg): 16.8 % of Vehicle
Number of lymphocytes (% of Vehicle) After 24 hours (blood lymphocytes; 10 mg/kg): 94.0 % of Vehicle
Number of lymphocytes (% of Vehicle) After 48 hours (blood lymphocytes; 10 mg/kg): 110.3 % of Vehicle
time course of the number of lymphocytes in blood (in words) (blood lymphocytes; 6 to 48 hours after administration): transient reduction of the number of lymphocytes in blood

SMILES: CCN(c1ccc(Cl)c(C(F)(F)F)c1)C1CCc2c1ccc(C)c2CN1CC(C(=O)O)C1 (stereo not drawn) [Compound 2-8, 1-{1-[(4-Chloro-3-trifluoromethylphenyl)(ethyl)amino]-5-methylindan-4-ylmethyl}azetidine-3-carboxylic acid]
IC50 (human S1P1 (EDG-1)): 2.9 nM
Number of lymphocytes (% of Vehicle) After 6 hours (blood lymphocytes; 1 mg/kg): 15.1 % of Vehicle
Number of lymphocytes (% of Vehicle) After 24 hours (blood lymphocytes; 1 mg/kg): 34.5 % of Vehicle
Number of lymphocytes (% of Vehicle) After 48 hours (blood lymphocytes; 1 mg/kg): 87.7 % of Vehicle
Number of lymphocytes (% of Vehicle) After 6 hours (blood lymphocytes; 10 mg/kg): 13.7 % of Vehicle
Number of lymphocytes (% of Vehicle) After 24 hours (blood lymphocytes; 10 mg/kg): 12.3 % of Vehicle
Number of lymphocytes (% of Vehicle) After 48 hours (blood lymphocytes; 10 mg/kg): 33.4 % of Vehicle

SMILES: C[C@]12C=CC(=O)C=C1CC[C@@H]1[C@@H]2[C@@H](O)C[C@@]2(C)[C@H]1CC[C@]2(O)C(=O)CO [Prednisclone, reference compound]
Body weight change ratio (%) ([1]; oral twice a day from day 15, 1.5 mg/kg, day 30): −10.4 ± 1.4%
Colon weight (%) [1, 2]: 58.3 ± 18.9%
DAI score (%) [1, 2]: 104.4 ± 20.0%

Now from value to compound:

IC50 (human S1P1 (EDG-1)): 1.2 nM
SMILES: C=Cc1ccc(C(C)N(CC)c2ccc(Cl)c(C(F)(F)F)c2)cc1CN1CC(C(=O)O)C1 (stereo not drawn) [Compound 4-1, 1-(5-{1-[(4-Chloro-3-trifluoromethylphenyl)(ethyl)amino]ethyl}-2-vinylbenzyl)-azetidine-3-carboxylic acid]

IC50 (human S1P1 (EDG-1)): 3.1 nM
SMILES: CCN(c1cc(C(F)(F)F)cc(C(F)(F)F)c1)C(C)c1ccc(C)c(CN2CC(C(=O)O)C2)c1 (stereo not drawn) [Compound 4-2]

IC50 (human S1P1 (EDG-1)): 4.4 nM
SMILES: CCN(c1ccc(Cl)c(C(F)(F)F)c1)C(C)c1ccc(CO)c(CN2CC(C(=O)O)C2)c1 (stereo not drawn) [Compound 5-1, 1-(5-{1-[(4-Chloro-3-trifluoromethylphenyl)(ethyl)amino]ethyl}-2-hydroxymethyl-benzyl)azetidine-3-carboxylic acid]

IC50 (human S1P1 (EDG-1)): 2.5 nM
SMILES: CCN(c1ccc(Cl)c(C(F)(F)F)c1)C(CO)c1ccc(C)c(CN2CC(C(=O)O)C2)c1 (stereo not drawn) [Compound 6-2]

IC50 (human S1P1 (EDG-1)): 2.8 nM
SMILES: CCN(c1ccc(Cl)c(C)c1)C1CCc2c(CN3CC(C(=O)O)C3)cccc21 (stereo not drawn) [Compound 6-3]

IC50 (human S1P1 (EDG-1)): 1.2 nM
SMILES: CCN(c1ccc(Cl)c(C)c1)[C@H](C)c1cccc(CN2CC(C(=O)O)C2)c1 [Compound 6-5]
